According to PubChem BioAssay AID2060612 (Molecular Pharmacology Branch, DTP, NCI, 2025):

Tested on: 565232-114-T-J1-PDC complex spheroid viability
Assay: Anticancer human tumor 565232-114-T-J1-PDC patient-derived bladder carcinoma cell line growth inhibition [CLK]
Details: for IC50: curve of first compound; for viability, T/C: stronger effect = lower value
Outline: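 Multi-cell-type spheroids combined patient-derived tumor cells with HUVEC endothelial cells and human mesenchymal stem cells. Paired agents were dosed in half-log steps down from about clinical Cmax, or from 10 microM where Cmax was unknown.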

[1] = second compound 0.0316 µM, first compound 0.0316 µM
[2] = second compound 0.0316 µM, first compound 0.1 µM
[3] = second compound 0.0316 µM, first compound 0.316 µM
[4] = second compound 0.0316 µM, first compound 1 µM
[5] = second compound 0.0316 µM, first compound 3.16 µM
[6] = second compound 0.0316 µM, first compound 10 µM
[7] = second compound 0.1 µM, first compound 0.0316 µM
[8] = second compound 0.1 µM, first compound 0.1 µM
[9] = second compound 0.1 µM, first compound 0.316 µM
[10] = second compound 0.1 µM, first compound 1 µM
[11] = second compound 0.1 µM, first compound 3.16 µM
[12] = second compound 0.1 µM, first compound 10 µM
[13] = second compound 0.316 µM, first compound 0.0316 µM
[14] = second compound 0.316 µM, first compound 0.1 µM
[15] = second compound 0.316 µM, first compound 0.316 µM
[16] = second compound 0.316 µM, first compound 1 µM
[17] = second compound 0.316 µM, first compound 3.16 µM
[18] = second compound 0.316 µM, first compound 10 µM
[19] = second compound 1 µM, first compound 0.0316 µM
[20] = second compound 1 µM, first compound 0.1 µM
[21] = second compound 1 µM, first compound 0.316 µM
[22] = second compound 1 µM, first compound 1 µM
[23] = second compound 1 µM, first compound 3.16 µM
[24] = second compound 1 µM, first compound 10 µM
[25] = second compound 3.16 µM, first compound 0.0316 µM
[26] = second compound 3.16 µM, first compound 0.1 µM
[27] = second compound 3.16 µM, first compound 0.316 µM
[28] = second compound 3.16 µM, first compound 1 µM
[29] = second compound 3.16 µM, first compound 3.16 µM
[30] = second compound 3.16 µM, first compound 10 µM
[31] = second compound 10 µM, first compound 0.0316 µM
[32] = second compound 10 µM, first compound 0.1 µM
[33] = second compound 10 µM, first compound 0.316 µM
[34] = second compound 10 µM, first compound 1 µM
[35] = second compound 10 µM, first compound 3.16 µM
[36] = second compound 10 µM, first compound 10 µM
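Further: spheroids exposed to compounds for 7 days before readout.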
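Wherever viability, T/C is given: 100% = DMSO vehicle wells with luminescence normalized to vehicle control.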

With C=CC(=O)N1CCN(c2nc(=O)n(-c3c(C)ccnc3C(C)C)c3nc(-c4c(O)cccc4F)c(F)cc23)C(C)C1 (stereo unspecified) + CNC(=O)c1ccc(Nc2nc(OC3CCCC3)c3c(-c4ccc5nc(C)oc5c4)c[nH]c3n2)c(OC)c1 the IC50 (second compound 0.0316 µM) was > 10000 nM, the IC50 (second compound 0.1 µM) was > 10000 nM and the IC50 (second compound 0.316 µM) was < 31.6 nM. For the same molecule, the IC50 (second compound 1 µM) was < 31.6 nM, the IC50 (second compound 3.16 µM) was < 31.6 nM and the IC50 (second compound 10 µM) was < 31.6 nM. For the same molecule, the viability, T/C [1] was 102%, the viability, T/C [2] was 83.5% and the viability, T/C [3] was 98.2%. For the same molecule, the viability, T/C [4] was 94.4%, the viability, T/C [5] was 105% and the viability, T/C [6] was 118%. For the same molecule, the viability, T/C [7] was 64.9%, the viability, T/C [8] was 55.1% and the viability, T/C [9] was 57.2%. The viability, T/C [10] was 58.2%, the viability, T/C [11] was 69.6% and the viability, T/C [12] was 58.8%. For the same molecule, the viability, T/C [13] was 35.3%, the viability, T/C [14] was 37.5% and the viability, T/C [15] was 34.3%. The viability, T/C [16] was 32.8%, the viability, T/C [17] was 42.5% and the viability, T/C [18] was 37.8%. It also gave a viability, T/C [19] of 21.6%, a viability, T/C [20] of 24.7% and a viability, T/C [21] of 25.1%. The viability, T/C [22] was 26.1%, the viability, T/C [23] was 29.1% and the viability, T/C [24] was 27.5%. It also gave a viability, T/C [25] of 21.4%, a viability, T/C [26] of 19.8% and a viability, T/C [27] of 21.8%. For the same molecule, the viability, T/C [28] was 23.6%, the viability, T/C [29] was 28.3% and the viability, T/C [30] was 23.2%. For the same molecule, the viability, T/C [31] was 22.1%, the viability, T/C [32] was 14.6% and the viability, T/C [33] was 18.9%. For the same molecule, the viability, T/C [34] was 26%, the viability, T/C [35] was 28.1% and the viability, T/C [36] was 25%.
CC(CO)NC(=O)c1cc(-c2ccc(Cl)cc2)nn(-c2cnn(C)c2)c1=O (stereo unspecified) + CNC(=O)c1ccc(Nc2nc(OC3CCCC3)c3c(-c4ccc5nc(C)oc5c4)c[nH]c3n2)c(OC)c1 was tested, and the IC50 (second compound 0.0316 µM) was > 10000 nM, the IC50 (second compound 0.1 µM) was 131 nM and the IC50 (second compound 0.316 µM) was < 31.6 nM. The IC50 (second compound 1 µM) was < 31.6 nM, the IC50 (second compound 3.16 µM) was < 31.6 nM and the IC50 (second compound 10 µM) was < 31.6 nM. It also gave a viability, T/C [1] of 85.2%, a viability, T/C [2] of 74.3% and a viability, T/C [3] of 79.8%. For the same molecule, the viability, T/C [4] was 83%, the viability, T/C [5] was 97.6% and the viability, T/C [6] was 117%. It also gave a viability, T/C [7] of 50.5%, a viability, T/C [8] of 51.3% and a viability, T/C [9] of 48.8%. It also gave a viability, T/C [10] of 47.1%, a viability, T/C [11] of 51% and a viability, T/C [12] of 45.4%. The viability, T/C [13] was 35%, the viability, T/C [14] was 26.5% and the viability, T/C [15] was 32.5%. It also gave a viability, T/C [16] of 36.1%, a viability, T/C [17] of 37.7% and a viability, T/C [18] of 34%. For the same molecule, the viability, T/C [19] was 22.1%, the viability, T/C [20] was 23.6% and the viability, T/C [21] was 23.7%. It also gave a viability, T/C [22] of 21.1%, a viability, T/C [23] of 23.5% and a viability, T/C [24] of 22.5%. The viability, T/C [25] was 17.5%, the viability, T/C [26] was 18.2% and the viability, T/C [27] was 19.7%. The viability, T/C [28] was 18.2%, the viability, T/C [29] was 22% and the viability, T/C [30] was 19%. For the same molecule, the viability, T/C [31] was 19.9%, the viability, T/C [32] was 18.1% and the viability, T/C [33] was 18.4%. For the same molecule, the viability, T/C [34] was 16.2%, the viability, T/C [35] was 18.4% and the viability, T/C [36] was 17.7%.
COC1C=CCC(C)C(C)S(=O)(=O)NC(=O)c2ccc3c(c2)N(CC2CCC21)CC1(CCCc2cc(Cl)ccc21)CO3 (stereo unspecified) + CNC(=O)c1ccc(Nc2nc(OC3CCCC3)c3c(-c4ccc5nc(C)oc5c4)c[nH]c3n2)c(OC)c1 was tested, and the IC50 (second compound 0.0316 µM) was 695 nM, the IC50 (second compound 0.1 µM) was < 31.6 nM and the IC50 (second compound 0.316 µM) was < 31.6 nM. For the same molecule, the IC50 (second compound 1 µM) was < 31.6 nM, the IC50 (second compound 3.16 µM) was < 31.6 nM and the IC50 (second compound 10 µM) was < 31.6 nM. For the same molecule, the viability, T/C [1] was 89.9%, the viability, T/C [2] was 103% and the viability, T/C [3] was 85.8%. For the same molecule, the viability, T/C [4] was 33.2%, the viability, T/C [5] was 6.83% and the viability, T/C [6] was 3.49%. It also gave a viability, T/C [7] of 43.1%, a viability, T/C [8] of 36.9% and a viability, T/C [9] of 24.7%. It also gave a viability, T/C [10] of 19.2%, a viability, T/C [11] of 7.48% and a viability, T/C [12] of 5.14%. For the same molecule, the viability, T/C [13] was 24.4%, the viability, T/C [14] was 19.1% and the viability, T/C [15] was 16.4%. It also gave a viability, T/C [16] of 9.76%, a viability, T/C [17] of 5.62% and a viability, T/C [18] of 3.86%. The viability, T/C [19] was 15.8%, the viability, T/C [20] was 14.5% and the viability, T/C [21] was 13.3%. For the same molecule, the viability, T/C [22] was 7.06%, the viability, T/C [23] was 4.08% and the viability, T/C [24] was 2.86%. The viability, T/C [25] was 11.4%, the viability, T/C [26] was 11% and the viability, T/C [27] was 7.5%. For the same molecule, the viability, T/C [28] was 4.35%, the viability, T/C [29] was 2.97% and the viability, T/C [30] was 3%. The viability, T/C [31] was 14.1%, the viability, T/C [32] was 9.12% and the viability, T/C [33] was 6.08%. It also gave a viability, T/C [34] of 5.45%, a viability, T/C [35] of 3.56% and a viability, T/C [36] of 3.09%.
